Values joined by “and” are separate entries in the source; they are usually repeats but may differ in a detail not shown here. Equal entries are not always repeated. Where two headings read alike, the source gives them in different places.

Data set [1] deals with T1, Rat2 fibroblasts stably transformed with v-Src/Hu Lck fusion gene (Homo sapiens, UniProt P06239, cells depend on it, form not given).
T1 construct: Candidates are e.g. Schmidt-Ruppin A (P00524) or Prague C (P00526); The human Lck catalytic domain stands in place of the v-Src catalytic domain
T1 sequence (P06239 whole entry, change not shown, the tested form may be a part): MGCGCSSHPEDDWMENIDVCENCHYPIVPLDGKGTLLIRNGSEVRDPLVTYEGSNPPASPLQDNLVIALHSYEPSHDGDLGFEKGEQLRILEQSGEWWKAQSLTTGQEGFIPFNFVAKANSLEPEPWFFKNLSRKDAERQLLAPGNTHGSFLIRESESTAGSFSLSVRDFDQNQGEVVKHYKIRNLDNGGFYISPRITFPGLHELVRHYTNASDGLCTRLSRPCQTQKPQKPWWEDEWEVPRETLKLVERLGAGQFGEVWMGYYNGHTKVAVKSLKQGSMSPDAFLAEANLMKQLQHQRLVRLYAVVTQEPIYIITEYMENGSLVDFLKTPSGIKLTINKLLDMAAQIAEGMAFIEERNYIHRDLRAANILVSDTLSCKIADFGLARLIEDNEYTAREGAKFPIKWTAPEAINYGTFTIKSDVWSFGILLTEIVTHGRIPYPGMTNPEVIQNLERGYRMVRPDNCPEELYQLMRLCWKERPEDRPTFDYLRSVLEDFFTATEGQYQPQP
Description: Anchorage independent Lck-transformed fibroblast proliferation assay. In kind it is cell-based, rat. The settings on record: Table 3; read-out: Lck Cells IC50. How it is done: Anchorage Independent Lck-Transformed Fibroblast Proliferation Assay
Rat2 fibroblasts stably transformed with a plasmid containing a CMV promotor controlled v-Src/Hu Lck fusion gene in which the catalytic domain of human Lck was inserted in place of the v-Src catalytic domain in the v-Src gene are used for the measurement of src dependent suspension growth. Ultra-low cluster plates (Costar # 3474) are seeded with 10,000 cells per well on Day 1. Compound is added in serial two-fold dilutions from 10 micromolar to 0.009 micromolar on Day 2 and MTS reagent (Promega) is added on Day 5 (100 microliters of MTS/medium mix+100 microliters of medium already on the cells and the absorbance is measured at 490 nm. The results are analyzed as follows to yield an IC50 for proliferation (micromolar units) as follow: % inhibition=(Abs490 nm sample−blank)/(Abs490 nm no cmpd control−blank)×100%. The results obtained for representative compounds of this invention are listed in Table 2. Multiple entries for a given compound indicate that it was tested multiple times.

Data set [2] has as its system Rat2 fibroblasts stably transformed with v-Src/Hu c-Src fusion gene. Description: Anchorage independent Src-transformed fibroblast proliferation assay. It counts as cell-based, rat. The settings on record: for inhibition at 100 µM: read-out: Src cells % inh at 100 μM. Here is the method:
Anchorage Independent Src-Transformed Fibroblast Proliferation Assay Rat2 fibroblasts stably transformed with a plasmid containing a CMV promotor controlled v-Src/Hu c-Src fusion gene in which the catalytic domain of human c-Src was inserted in place of the v-Src catalytic domain in the v-Src gene are used for the measurement of src dependent suspension growth. […] Multiple entries for a given compound indicate that it was tested multiple times.

Where [3] appears, read: Table 3, read-out: Src Cells IC50 μM or % inhib at 10 μM (IC50 values).
[4] abbreviates: Rattus norvegicus, Rat2, Table 3, read-out: Src Cells IC50 μM or % inhib at 10 μM (IC50 values).
The mark [5] stands for this setting: Rattus norvegicus, Rat2, Table 1.
Where [6] appears, read: Rattus norvegicus, Rat2, 120 h, Table 1, suspension growth, MTS readout Day 5, read-out: Src cells IC50.
[7] abbreviates: Table 1, suspension growth, MTS readout Day 5, read-out: Src cells IC50.

As to “7-[(2,4-dichloro-5-methoxyphenyl)amino]-2-{4-[(4-pyrrolidin-1-ylpiperidin-1-yl)methyl]phenyl}thieno[3,2-b]pyridine-6-carbonitrile [Example 71]”, the GI50 in data set [1] is 200 nM and 110 nM. The IC50 in data set [2] (setting [3]) is 1.6 µM and 0.9 µM.

For `COc1cc(Nc2c(C#N)cnc3cc(C#Cc4cn[nH]c4)sc23)c(Cl)cc1Cl` [Example 101, 7-[(2,4-dichloro-5-methoxyphenyl)amino]-2-(1H-pyrazol-4-ylethynyl)thieno[3,2-b]pyridine-6-carbonitrile], the GI50 in data set [1] was 938 nM and 804 nM. Moreover, the results for the IC50 in data set [2] (setting [4]) and in data set [2] (setting [3]) were 0.804 µM and 0.81 µM, respectively.

Turning to `COc1cc(Nc2c(C#N)cnc3cc(-c4ccc(CN5C[C@H](C)NC[C@H]5C)cc4)sc23)c(Cl)cc1Cl` [Example 114, 7-[(2,4-dichloro-5-methoxyphenyl)amino]-2-(4{[(2R,5S)-2,5-dimethylpiperazin-1-I]methyl}phenyl)thieno[3,2-b]pyridine-6-carbonitrile], the GI50 in data set [1] was 156 nM and 174 nM.

For the compound `COc1cc(Nc2c(C#N)cnc3cc(-c4ccc(C=O)s4)sc23)c(Cl)cc1Cl` [Example 79, 7-[(2,4-dichloro-5-methoxyphenyl)amino]-2-(5-formylthien-2-yl)thieno[3,2-b]pyridine-6-carbonitrile], the GI50 in data set [1] is 1500 nM and 1600 nM. Further, the IC50 in data set [2] (setting [4]) worked out at 2.4 µM; in data set [2] (setting [3]) it was 2.8 µM.

As for `COc1cc(Nc2c(C#N)cnc3cc(-c4ccc(CN(C)CCCN(C)C)cc4)sc23)c(Cl)cc1Cl` [Example 85, 7-[(2,4-dichloro-5-methoxyphenyl)amino]-2-(4-{[[3-(dimethylamino)propyl](methyl)amino]methyl}phenyl)thieno[3,2-b]pyridine-6-carbonitrile], in data set [1], the GI50 amounted to 500 nM. Further, the IC50 in data set [2] (setting [4]) amounted to 3.3 µM; in data set [2] (setting [3]) it was 3.16 µM.

With `COc1cc(Nc2c(C#N)cnc3cc(-c4ccc(C=O)o4)sc23)c(Cl)cc1Cl` [Example 67, 7-[(2,4-dichloro-5-methoxyphenyl)amino]-2-(5-formyl-2-furyl)thieno[3,2-b]pyridine-6-carbonitrile], the GI50 in data set [1] was 1500 nM and 1700 nM. The IC50 in data set [2] (setting [4]) came out at 3.7 µM.

Regarding `COc1cc(Nc2c(C#N)cnc3cc(C#Cc4cnn(CCN5CCOCC5)c4)sc23)c(Cl)cc1Cl` [Example 65, 7-[(2,4-Dichloro-5-methoxyphenyl)amino]-2-{[1-(2-morpholin-4-ylethyl)-1H-pyrazol-4-yl]ethynyl}thieno[3,2-b]pyridine-6-carbonitrile], in data set [1], the GI50 was more than 10000 nM. For the same compound, in data set [2] (setting [4]), the IC50 came out at 0.7 µM.

As for `COc1cc(Nc2c(C#N)cnc3cc(C#Cc4cncn4C)sc23)c(Cl)cc1Cl` [Example 127, 7-[(2,4-dichloro-5-methoxyphenyl)amino]-2-[(1-methyl-1H-imidazol-5-yl)ethynyl]thieno[3,2-b]pyridine-6-carbonitrile], the GI50 in data set [1] is more than 10000 nM. Moreover, the “Src Cells IC50 μM or % inhib at 10 μM (% values)” value in data set [2] (Table 3, at 10 μM) was 0% and 9%.

Take `COc1cc(Nc2c(C#N)cnc3cc(-c4ccn(CCN(C)C)c4)sc23)c(Cl)cc1Cl` [Example 125, 7-[(2,4-dichloro-5-methoxyphenyl)amino]-2-{1-[2-(dimethylamino)ethyl]-1H-pyrrol-3-yl}thieno[3,2-b]pyridine-6-carbonitrile]: the GI50 in data set [1] was > 10000 nM and 5800 nM. In data set [2] (setting [4]), the IC50 was more than 10 µM.

Regarding `COc1cc(Nc2c(C#N)cnc3cc(-c4cc[nH]c4)sc23)c(Cl)cc1Cl` [Example 90, 7-[(2,4-dichloro-5-methoxyphenyl)amino]-2-(1H-pyrrol-3-yl)thieno[3,2-b]pyridine-′6-carbonitrile], the GI50 in data set [1] was 2700 nM and 2400 nM. The IC50 in data set [2] (setting [3]) is 2.6 µM and 3.1 µM.

Turning to `COc1cc(Nc2c(C#N)cnc3cc(-c4cn[nH]c4)sc23)c(Cl)cc1Cl` [Example 129, 7-[(2,4-dichloro-5-methoxyphenyl)amino]-2-(1 H-pyrazol-4-yl)thieno[3,2-b]pyridine-6-carbonitrile], the GI50 in data set [1] was 1460 nM and 1400 nM. Besides, the values for the IC50 in data set [2] (setting [4]) and in data set [2] (setting [3]) were 3.23 µM and 2.19 µM, respectively.

`Cn1ccnc1Sc1ccc(Nc2c(C#N)cnc3sccc23)cc1Cl` [Example 6, 4-[(3-Chloro-4-[(1-methyl-1H-imidazol-2-yl)thio]phenyl)amino]thieno[2,3-b]pyridine-5-carbonitrile] displayed a melting point of more than 240 °C. Further, the inhibition at 100 µM in data set [2] (setting [5]) amounted to 3%.

For `N#Cc1cnc2cc(-c3ccc(CO)cc3)sc2c1Nc1ccc(Oc2ccccc2)cc1` [Example 46, 2-[4-(Hydroxymethyl)phenyl]-7-[(4-phenoxyphenyl)amino]thieno[3,2-b]pyridine-6-carbonitrile], the melting point was in the range of 225 to 228 °C. The inhibition at 100 µM in data set [2] (setting [5]) stood at 26%.

In turn, `N#Cc1cnc2cc(Br)sc2c1Nc1ccc(Oc2ccccc2)cc1` [Example 48, 2-Bromo-7-[(4-phenoxyphenyl)amino]thieno[3,2-b]pyridine-6-carbonitrile] showed a melting point of 248 to 250 °C. The inhibition at 100 µM in data set [2] (setting [5]) was found to be 30%.

For the compound `COc1cc(Nc2c(C#N)cnc3cc(-c4ccc(CN5CCC(O)CC5)cc4)sc23)c(Cl)cc1Cl` [Example 40, 7-[(2,4-Dichloro-5-methoxyphenyl)amino]-2-{4-[(4-hydroxypiperidin-1-yl)methyl]phenyl}thieno[3,2-b]pyridine-6-carbonitrile], the melting point was 149 to 150 °C. For the same compound, in data set [2] (setting [6]), the IC50 is 0.71 µM. Besides, the IC50 in data set [2] (setting [7]) turned out to be 0.43 µM.

In turn, `COc1cc(Nc2c(C#N)cnc3cc(C#Cc4ccccn4)sc23)c(Cl)cc1Cl` [Example 22, 7-[(2,4-Dichloro-5-methoxyphenyl)amino]-2-(pyridin-2-ylethynyl)thieno[3,2-b]pyridine-6-carbonitrile] displayed a melting point of 237 to 239 °C. Also, the IC50 in data set [2] (setting [6]) turned out to be 1 µM.

`COc1cc(Nc2c(C#N)cnc3cc(-c4ccc(CN(C)C)cn4)sc23)c(Cl)cc1Cl` [Example 132, 7-[(2,4-dichloro-5-methoxyphenyl)amino]-2-{5-[(dimethylamino)methyl]pyridin-2-yl}thieno[3,2-b]pyridine-6-carbonitrile]: in data set [1], the GI50 is 112 nM and 96 nM.

Consider `COc1cc(Nc2c(C#N)cnc3cc(C#Cc4ccncc4)sc23)c(Cl)cc1Cl` [Example 34, 7-[(2,4-Dichloro-5-methoxyphenyl)amino]-2-(pyridin-4-ylethynyl)thieno[3,2-b]pyridine-6-carbonitrile], for which the melting point was in the range of 221 to 223 °C. Also, the IC50 in data set [2] (setting [6]) was found to be 8.6 µM.

On to `COc1cc(Nc2c(C#N)cnc3cc(-c4cnc(C=O)n4C)sc23)c(Cl)cc1Cl` [Example 54, 7-[(2,4-Dichloro-5-methoxyphenyl)amino]-2-(2-formyl-1-methyl-1H-imidazol-5-yl)thieno[3,2-b]pyridine-6-carbonitrile], for which the melting point lay in the range of 225 to 227 °C. The IC50 in data set [2] (setting [6]) came to 1.51 µM. In data set [2] (setting [7]), the IC50 is 1.01 µM.

As for `N#Cc1cnc2cc(-c3ccc(C=O)cc3)sc2c1Nc1ccc(Oc2ccccc2)cc1` [Example 43, 2-(4-Formylphenyl)-7-[(4-phenoxyphenyl)amino]thieno[3,2-b]pyridine-6-carbonitrile], the melting point lay within 230 to 232 °C. The inhibition at 100 µM in data set [2] (setting [5]) was determined as 4%.

`COc1cc(Nc2c(C#N)cnc3sc(I)cc23)c(Cl)cc1Cl` [Example 7, 4-[(2,4-Dichloro-5-methoxyphenyl)amino]-2-iodothieno[2,3-b]pyridine-5-carbonitrile] yielded a melting point of 231 to 233 °C. Further, the inhibition at 10 µM in data set [2] (Rattus norvegicus, Rat2, Table 1, at 10 μM, read-out: Src cells % inh at 10 μM) turned out to be 31%.
